# Reference: patent US4994446A, “Drug system” (Ramot - University Authority for Applied Research and …, priority 1989, dated 1991)
# Where a name gives a salt, the structure may show the parent alone.
# Key:
# NMDA receptor channel [1] = assay: Dissociation of [3H]MK-801-receptor complexes, initiated by 100 μM unlabeled PCP; format: binding, rat
# Description: (§1) Binding assays were performed in triplicate at 25° C. with repeatedly washed rat cerebral cortex membranes (80 μg protein) as described in Biochem. ibid. Assays were carried out in the absence or in the presence of 10^-4 M AP-5, or in the presence of 10 μM MgCl2 together with 1 μM L-glutamate and 1 μM glycine. Nonspecific binding was determined in samples containing 10^-4 M PCP. Data were expressed as the specific binding of [^3 H]MK-801 and analyzed according to the two-step binding model of interactions between noncompetitive blockers and the NMDA receptor channel. The model assumes a first order diffusion of the ligand from the outside into the interior of the channel, followed by association of the ligand with its receptor sites. Under the two extreme conditions employed here, viz., binding of [^3 H]MK-801 in the presence of agonists (unlimited diffusion) and in the absence of agonists (limited diffusion) the time courses of receptor occupation should respectively follow pseudo first order (eq. 1) and first order (eq. 2) kinetics:
# Samples were incubated at 25° C. with 8 nM [^3 H] 801 for 2 hr. The dissociation reaction was initiated by the addition of 100 μM unlabeled PCP. […] Reactions were terminated either immediately (zero time) or at the indicated times. Bo --amount of [^3 H]MK-801 bound at zero time. Bt --amount of [^3 H] 801 bound at time t.
# NMDA receptor channel [2] = assay: [3H]MK-801-receptor association kinetics, repeatedly washed rat cerebral cortex membranes; format: binding
# Description: as §1
# ([RL]eq-[RL])/[RL]eq≡exp.-(k1k2[L]/kb -k- 1)t eq. 1
# 1-{Kd [RL]/[L](RT ]-[RL ]}=exp.-Kb t eq. 2
# where L, RT, RLeq and RL are respectively the ligand, the total number of binding sites, the bound ligand at equilibrium and at time t. ka and kb are the forward and background diffusion constants; k1 and k- 1 are the second order on-rate and the first order off-rate constants for the binding process. The overall equilibrium binding constant (Kd) is given by K- 1·kb /k1·k2.
# FIG. 1A illustrates the time course of association of [^3 H] 801 (5 nM) with the NMDA receptor channel. Binding was determined at 25° C. as a function of time in the absence and in the presence of glutamate and glycine or in the presence of AP-5; whereas 1B illustrates the observed time constants (Kobs) derived from the pseudo first order plots of the association of 2, 5 and 8.6 nM [^3 H] 801 in the presence of glutamate and glycine plotted as a function of the ligand concentration. FIG. 1C is a first order plot (eq. 2) of [^3 H] 801-receptor association in the absence of agonists determined with ligand concentrations of 2 nM and 8.6 nM.
# NMDA receptor channel [3] = assay: Equilibrium binding of [3H]MK-801 (Scatchard), rat cerebral cortex membranes; conditions: for Kd: 4 hr at 25° C., read-out: Kd determined at equilibrium
# Description: as §1
# FIG. 2 left illustrates the equilibrium binding of [^3 H] 801. Binding of [^3 H] 801 as a function of its concentration was assayed after incubation for 4 hr at 25° C. in the absence or in the presence of glutamate and glycine. Also shown are data for [^3 H] 801 binding to the receptor measured after their incubation for 3 hr followed by an additional 1 hr of incubation in the presence of 100 μM AP-5. Data are expressed in the form of Scatchard plot.
# [4] = presence of glutamate and glycine
# [5] = 5 nM ligand, with glutamate and glycine, 25° C.
Structure (SMILES),"effect on rate of [3H]MK-801-receptor dissociation (NMDA receptor channel [1]; 100 μM AP-5 by itself, compared to control level)","effect on rate of [3H]MK-801-receptor association (NMDA receptor channel [2]; AP-5 (10^-4 M) by itself, compared to control level)","effect on equilibrium binding of preequilibrated [3H]MK-801-receptor complexes (NMDA receptor channel [3]; 3 hr incubation, then 1 hr with 100 μM AP-5)",dissociation rate constant (NMDA receptor channel [1]; [4]),"incubation time to reach equilibrium (NMDA receptor channel [2]; 5 nM ligand, absence of exogenous agonists, 25° C.)",association t1/2 (NMDA receptor channel [2]; [5]),time to approach equilibrium (NMDA receptor channel [2]; [5]),"half times of the association reactions (NMDA receptor channel [2]; absence of exogenous agonists, did not vary with ligand concentration)",apparent off-rate time constant (k-1) from association (NMDA receptor channel [2]; presence of glutamate and glycine (FIG. 1B)),"Kd (NMDA receptor channel [2]; presence of glutamate and glycine, read-out: kinetically derived dissociation constant (Kd), ratio of off-rate and on-rate constants)",increase in ligand-receptor binding immediately after onset of binding (NMDA receptor channel [2]; with glutamate and glycine vs control without),Kd (NMDA receptor channel [3]; absence of glutamate and glycine),Kd (NMDA receptor channel [3]; [4])
"N[C@H](CCCP(=O)(O)O)C(=O)O [AP-5, D(-)2-amino-5-phosphovaleric acid]",decreases the rates,decreases the rates,did not alter the equilibrium binding,–,–,–,–,–,–,–,–,–,–
"C[C@]12N[C@H](Cc3ccccc31)c1ccccc12 [[^3 H]MK-801, (+) 5 methyl-10,11 dihydro-5H-dibenzo[a,d]cyclohepten-5,10-imine maleate]",–,–,–,0.1 min⁻¹,> 6 h,~7 min,45 to 60 min,60 to 70 min,0.075 min⁻¹,4.8 nM,~ 9 times that of the control,2.1 nM,4.2 nM
